Data from PMC4917279 (Journal of Medicinal Chemistry, 2016).

Key:
PIP5K2B = molecular target: T1, PIP5K2B (Homo sapiens, UniProt P78356); assay: KINOMEscan; assay type: binding; details: read-out: %Ctrl @ 1000 nM
T1 construct: purchased DiscoveRx KINOMEscan

EPHB3 = molecular target: T2, EPHB3 (Homo sapiens, UniProt P54753); assay: KINOMEscan; assay type: binding; details: read-out: %Ctrl @ 1000 nM
T2 construct: purchased DiscoveRx KINOMEscan

RIPK5 = molecular target: T3, RIPK5 (Homo sapiens, UniProt Q6XUX3); assay: KINOMEscan; assay type: binding; details: read-out: %Ctrl @ 1000 nM
T3 construct: purchased DiscoveRx KINOMEscan

ACVRL1 = molecular target: T4, ACVRL1 (Homo sapiens, UniProt P37023); assay: KINOMEscan; assay type: binding; details: read-out: %Ctrl @ 1000 nM
T4 construct: purchased DiscoveRx KINOMEscan

TYRO3 = molecular target: T5, TYRO3 (Homo sapiens, UniProt Q06418); assay: KINOMEscan; assay type: binding; details: read-out: %Ctrl @ 1000 nM
T5 construct: purchased DiscoveRx KINOMEscan

MLK2 = molecular target: T6, MLK2 (Homo sapiens, UniProt Q02779); assay: KINOMEscan; assay type: binding; details: read-out: %Ctrl @ 1000 nM
T6 construct: purchased DiscoveRx KINOMEscan

EPHA7 = molecular target: T7, EPHA7 (Homo sapiens, UniProt Q15375); assay: KINOMEscan; assay type: binding; details: read-out: %Ctrl @ 1000 nM
T7 construct: purchased DiscoveRx KINOMEscan

HUNK = molecular target: T8, HUNK (Homo sapiens, UniProt P57058); assay: KINOMEscan; assay type: binding; details: read-out: %Ctrl @ 1000 nM
T8 construct: purchased DiscoveRx KINOMEscan

TNK1 = molecular target: T9, TNK1 (Homo sapiens, UniProt Q13470); assay: KINOMEscan; assay type: binding; details: read-out: %Ctrl @ 1000 nM
T9 construct: purchased DiscoveRx KINOMEscan

MUSK = molecular target: T10, MUSK (Homo sapiens, UniProt O15146); assay: KINOMEscan; assay type: binding; details: read-out: %Ctrl @ 1000 nM
T10 construct: purchased DiscoveRx KINOMEscan

PYK2 = molecular target: T11, PYK2 (Homo sapiens, UniProt Q14289); assay: KINOMEscan; assay type: binding; details: read-out: %Ctrl @ 1000 nM
T11 construct: purchased DiscoveRx KINOMEscan

DDR1 = molecular target: T12, DDR1 (Homo sapiens, UniProt Q08345); assay: KINOMEscan; assay type: binding; details: read-out: %Ctrl @ 1000 nM
T12 construct: purchased DiscoveRx KINOMEscan

FGFR3 = molecular target: T13, FGFR3 (Homo sapiens, UniProt P22607); assay: KINOMEscan; assay type: binding; details: read-out: %Ctrl @ 1000 nM
T13 construct: purchased DiscoveRx KINOMEscan

KIT-autoinhibited = molecular target: T14, KIT-autoinhibited (Homo sapiens, UniProt P10721); assay: KINOMEscan; assay type: binding; details: read-out: %Ctrl @ 1000 nM
T14 construct: purchased DiscoveRx KINOMEscan

PLK1 = molecular target: T15, PLK1 (Homo sapiens, UniProt P53350); assay: KINOMEscan; assay type: binding; details: read-out: %Ctrl @ 1000 nM
T15 construct: purchased DiscoveRx KINOMEscan

MYO3A = molecular target: T16, MYO3A (Homo sapiens, UniProt Q8NEV4); assay: KINOMEscan; assay type: binding; details: read-out: %Ctrl @ 1000 nM
T16 construct: purchased DiscoveRx KINOMEscan

PRKD3 = molecular target: T17, PRKD3 (Homo sapiens, UniProt O94806); assay: KINOMEscan; assay type: binding; details: read-out: %Ctrl @ 1000 nM
T17 construct: purchased DiscoveRx KINOMEscan

ASK1 = molecular target: T18, ASK1 (Homo sapiens, UniProt Q99683); assay: KINOMEscan; assay type: binding; details: read-out: %Ctrl @ 1000 nM
T18 construct: purchased DiscoveRx KINOMEscan

ALK(L1196M) = molecular target: T19, ALK(L1196M) (Homo sapiens, UniProt Q9UM73, L1196M); assay: KINOMEscan; assay type: binding; details: read-out: %Ctrl @ 1000 nM
T19 construct: purchased DiscoveRx KINOMEscan

MAP3K1 = molecular target: T20, MAP3K1 (Homo sapiens, UniProt Q13233); assay: KINOMEscan; assay type: binding; details: read-out: %Ctrl @ 1000 nM
T20 construct: purchased DiscoveRx KINOMEscan

PIK3C2G = molecular target: T21, PIK3C2G (Homo sapiens, UniProt O75747); assay: KINOMEscan; assay type: binding; details: read-out: %Ctrl @ 1000 nM
T21 construct: purchased DiscoveRx KINOMEscan

[1] = molecular target: T22, JAK3(JH1domain-catalytic) (Homo sapiens, UniProt P52333); assay: KINOMEscan; assay type: binding; details: read-out: %Ctrl @ 1000 nM
T22 construct: JAK3(JH1domain-catalytic); purchased DiscoveRx KINOMEscan

FLT3 = molecular target: T23, FLT3 (Homo sapiens, UniProt P36888); assay: KINOMEscan; assay type: binding; details: read-out: %Ctrl @ 1000 nM
T23 construct: purchased DiscoveRx KINOMEscan

ACVR1 = molecular target: T24, ACVR1 (Homo sapiens, UniProt Q04771); assay: KINOMEscan; assay type: binding; details: read-out: %Ctrl @ 1000 nM
T24 construct: purchased DiscoveRx

IRAK3 = molecular target: T25, IRAK3 (Homo sapiens, UniProt Q9Y616); assay: KINOMEscan; assay type: binding; details: read-out: %Ctrl @ 1000 nM
T25 construct: purchased DiscoveRx KINOMEscan

ERBB4 = molecular target: T26, ERBB4 (Homo sapiens, UniProt Q15303); assay: KINOMEscan; assay type: binding; details: read-out: %Ctrl @ 1000 nM
T26 construct: purchased DiscoveRx KINOMEscan

MEK6 = molecular target: T27, MEK6 (Homo sapiens, UniProt P52564); assay: KINOMEscan; assay type: binding; details: read-out: %Ctrl @ 1000 nM
T27 construct: purchased DiscoveRx KINOMEscan

TGFBR1 = molecular target: T28, TGFBR1 (Homo sapiens, UniProt P36897); assay: KINOMEscan; assay type: binding; details: read-out: %Ctrl @ 1000 nM
T28 construct: purchased DiscoveRx KINOMEscan

SMYD2 = SMYD2 (Homo sapiens, UniProt Q9NRG4); assay: Ex vivo methylation detection by dot blot (AHNAK) in SMYD2-overexpressing KYSE-150 xenografts; parameters: expressed in transfected cells; species or system mouse; details: 3 days
PRKX = molecular target: T29, PRKX (Homo sapiens, UniProt P51817); assay: KINOMEscan; assay type: binding; details: read-out: %Ctrl @ 1000 nM
T29 construct: purchased DiscoveRx KINOMEscan

MLCK = molecular target: T30, MLCK (Homo sapiens, UniProt Q32MK0); assay: KINOMEscan; assay type: binding; details: read-out: %Ctrl @ 1000 nM
T30 construct: purchased DiscoveRx KINOMEscan

MAP3K4 = molecular target: T31, MAP3K4 (Homo sapiens, UniProt Q9Y6R4); assay: KINOMEscan; assay type: binding; details: read-out: %Ctrl @ 1000 nM
T31 construct: purchased DiscoveRx KINOMEscan

NEK3 = molecular target: T32, NEK3 (Homo sapiens, UniProt P51956); assay: KINOMEscan; assay type: binding; details: read-out: %Ctrl @ 1000 nM
T32 construct: purchased DiscoveRx KINOMEscan

INSRR = molecular target: T33, INSRR (Homo sapiens, UniProt P14616); assay: KINOMEscan; assay type: binding; details: read-out: %Ctrl @ 1000 nM
T33 construct: purchased DiscoveRx KINOMEscan

ABL2 = molecular target: T34, ABL2 (Homo sapiens, UniProt P42684); assay: KINOMEscan; assay type: binding; details: read-out: %Ctrl @ 1000 nM
T34 construct: purchased DiscoveRx

HIPK1 = molecular target: T35, HIPK1 (Homo sapiens, UniProt Q86Z02); assay: KINOMEscan; assay type: binding; details: read-out: %Ctrl @ 1000 nM
T35 construct: purchased DiscoveRx KINOMEscan

ADCK4 = molecular target: T36, ADCK4 (Homo sapiens, UniProt Q96D53); assay: KINOMEscan; assay type: binding; details: read-out: %Ctrl @ 1000 nM
T36 construct: purchased DiscoveRx KINOMEscan

RIPK2 = molecular target: T37, RIPK2 (Homo sapiens, UniProt O43353); assay: KINOMEscan; assay type: binding; details: read-out: %Ctrl @ 1000 nM
T37 construct: purchased DiscoveRx KINOMEscan

MEK1 = molecular target: T38, MEK1 (Homo sapiens, UniProt Q02750); assay: KINOMEscan; assay type: binding; details: read-out: %Ctrl @ 1000 nM
T38 construct: purchased DiscoveRx KINOMEscan

CDKL2 = molecular target: T39, CDKL2 (Homo sapiens, UniProt Q92772); assay: KINOMEscan; assay type: binding; details: read-out: %Ctrl @ 1000 nM
T39 construct: purchased DiscoveRx KINOMEscan

CAMKK2 = molecular target: T40, CAMKK2 (Homo sapiens, UniProt Q96RR4); assay: KINOMEscan; assay type: binding; details: read-out: %Ctrl @ 1000 nM
T40 construct: purchased DiscoveRx KINOMEscan

EGFR(G719C) = molecular target: T41, EGFR(G719C) (Homo sapiens, UniProt P00533, G719C); assay: KINOMEscan; assay type: binding; details: read-out: %Ctrl @ 1000 nM
T41 construct: purchased DiscoveRx KINOMEscan

[2] = molecular target: T42, TYK2(JH1domain-catalytic) (Homo sapiens, UniProt P29597); assay: KINOMEscan; assay type: binding; details: read-out: %Ctrl @ 1000 nM
T42 construct: TYK2(JH1domain-catalytic); purchased DiscoveRx KINOMEscan

SMYD2, sequence (Q9NRG4 whole entry): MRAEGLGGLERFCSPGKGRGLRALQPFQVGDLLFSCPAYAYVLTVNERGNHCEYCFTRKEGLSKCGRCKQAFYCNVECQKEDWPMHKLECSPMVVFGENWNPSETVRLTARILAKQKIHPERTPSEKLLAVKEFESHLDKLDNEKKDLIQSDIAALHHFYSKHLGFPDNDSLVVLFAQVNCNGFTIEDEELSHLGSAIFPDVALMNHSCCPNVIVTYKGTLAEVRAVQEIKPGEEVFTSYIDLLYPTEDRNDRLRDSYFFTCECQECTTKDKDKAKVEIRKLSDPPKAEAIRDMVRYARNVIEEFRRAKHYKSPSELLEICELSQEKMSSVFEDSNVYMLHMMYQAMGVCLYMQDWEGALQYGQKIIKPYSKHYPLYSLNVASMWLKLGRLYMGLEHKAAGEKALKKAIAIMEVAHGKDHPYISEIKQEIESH
T18 sequence (Q99683 whole entry): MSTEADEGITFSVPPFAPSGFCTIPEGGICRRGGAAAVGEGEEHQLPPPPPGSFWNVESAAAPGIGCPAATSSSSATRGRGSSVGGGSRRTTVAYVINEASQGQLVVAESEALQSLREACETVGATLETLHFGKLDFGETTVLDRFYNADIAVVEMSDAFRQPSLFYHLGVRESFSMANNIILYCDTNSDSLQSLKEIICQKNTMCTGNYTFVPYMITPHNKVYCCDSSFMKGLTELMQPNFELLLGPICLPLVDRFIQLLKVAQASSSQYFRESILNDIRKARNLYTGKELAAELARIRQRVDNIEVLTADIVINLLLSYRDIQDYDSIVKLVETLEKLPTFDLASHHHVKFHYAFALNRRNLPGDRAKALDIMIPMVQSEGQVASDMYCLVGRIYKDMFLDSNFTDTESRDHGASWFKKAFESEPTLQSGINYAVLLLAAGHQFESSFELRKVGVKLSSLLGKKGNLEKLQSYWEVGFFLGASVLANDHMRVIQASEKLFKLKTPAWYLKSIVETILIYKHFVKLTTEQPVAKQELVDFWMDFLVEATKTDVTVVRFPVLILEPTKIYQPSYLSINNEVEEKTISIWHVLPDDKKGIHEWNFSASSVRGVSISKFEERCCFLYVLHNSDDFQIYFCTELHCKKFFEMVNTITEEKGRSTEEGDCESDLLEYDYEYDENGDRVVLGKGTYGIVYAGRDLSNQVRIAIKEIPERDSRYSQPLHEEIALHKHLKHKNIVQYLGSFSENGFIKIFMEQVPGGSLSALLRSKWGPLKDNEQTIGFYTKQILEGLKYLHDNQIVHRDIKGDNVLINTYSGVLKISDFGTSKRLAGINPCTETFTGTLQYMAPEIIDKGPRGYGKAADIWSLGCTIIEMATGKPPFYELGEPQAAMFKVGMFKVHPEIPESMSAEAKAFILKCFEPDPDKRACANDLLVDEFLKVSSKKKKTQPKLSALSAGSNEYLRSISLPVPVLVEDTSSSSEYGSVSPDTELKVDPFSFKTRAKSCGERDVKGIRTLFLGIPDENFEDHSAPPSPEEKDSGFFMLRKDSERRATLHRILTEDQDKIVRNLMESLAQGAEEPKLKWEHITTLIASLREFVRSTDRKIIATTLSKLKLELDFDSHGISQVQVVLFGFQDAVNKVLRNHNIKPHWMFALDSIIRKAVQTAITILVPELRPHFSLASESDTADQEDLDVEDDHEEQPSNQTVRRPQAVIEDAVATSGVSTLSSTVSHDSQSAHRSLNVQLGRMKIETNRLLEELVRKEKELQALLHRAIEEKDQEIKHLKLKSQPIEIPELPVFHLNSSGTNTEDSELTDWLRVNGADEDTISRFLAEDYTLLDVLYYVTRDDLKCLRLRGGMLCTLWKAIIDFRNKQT
T23 sequence (P36888 27-993): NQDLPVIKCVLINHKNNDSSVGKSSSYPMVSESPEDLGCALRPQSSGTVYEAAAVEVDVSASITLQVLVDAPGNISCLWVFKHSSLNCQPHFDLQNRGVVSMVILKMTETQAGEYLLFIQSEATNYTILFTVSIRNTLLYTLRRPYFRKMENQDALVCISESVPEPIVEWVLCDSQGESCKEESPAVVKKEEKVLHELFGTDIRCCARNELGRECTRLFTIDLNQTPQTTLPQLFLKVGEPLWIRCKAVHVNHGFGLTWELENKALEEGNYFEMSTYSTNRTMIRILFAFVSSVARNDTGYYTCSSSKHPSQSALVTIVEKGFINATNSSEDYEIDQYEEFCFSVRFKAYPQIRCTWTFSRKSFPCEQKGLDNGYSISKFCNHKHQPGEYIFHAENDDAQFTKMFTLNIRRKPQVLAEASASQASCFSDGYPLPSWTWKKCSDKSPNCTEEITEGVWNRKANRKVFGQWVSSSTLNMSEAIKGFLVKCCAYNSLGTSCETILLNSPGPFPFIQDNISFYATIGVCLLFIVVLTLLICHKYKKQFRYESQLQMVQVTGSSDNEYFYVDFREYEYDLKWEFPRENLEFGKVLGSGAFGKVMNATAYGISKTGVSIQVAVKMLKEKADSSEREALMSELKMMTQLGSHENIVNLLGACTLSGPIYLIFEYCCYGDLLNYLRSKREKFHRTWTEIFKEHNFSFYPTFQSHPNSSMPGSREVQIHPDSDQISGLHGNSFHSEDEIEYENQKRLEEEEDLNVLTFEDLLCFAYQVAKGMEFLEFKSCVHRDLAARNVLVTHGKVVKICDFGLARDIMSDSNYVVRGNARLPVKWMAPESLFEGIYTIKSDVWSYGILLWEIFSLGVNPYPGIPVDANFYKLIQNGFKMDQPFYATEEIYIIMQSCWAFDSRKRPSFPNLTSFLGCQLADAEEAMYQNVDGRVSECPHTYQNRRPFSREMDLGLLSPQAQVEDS
T20 sequence (Q13233 whole entry): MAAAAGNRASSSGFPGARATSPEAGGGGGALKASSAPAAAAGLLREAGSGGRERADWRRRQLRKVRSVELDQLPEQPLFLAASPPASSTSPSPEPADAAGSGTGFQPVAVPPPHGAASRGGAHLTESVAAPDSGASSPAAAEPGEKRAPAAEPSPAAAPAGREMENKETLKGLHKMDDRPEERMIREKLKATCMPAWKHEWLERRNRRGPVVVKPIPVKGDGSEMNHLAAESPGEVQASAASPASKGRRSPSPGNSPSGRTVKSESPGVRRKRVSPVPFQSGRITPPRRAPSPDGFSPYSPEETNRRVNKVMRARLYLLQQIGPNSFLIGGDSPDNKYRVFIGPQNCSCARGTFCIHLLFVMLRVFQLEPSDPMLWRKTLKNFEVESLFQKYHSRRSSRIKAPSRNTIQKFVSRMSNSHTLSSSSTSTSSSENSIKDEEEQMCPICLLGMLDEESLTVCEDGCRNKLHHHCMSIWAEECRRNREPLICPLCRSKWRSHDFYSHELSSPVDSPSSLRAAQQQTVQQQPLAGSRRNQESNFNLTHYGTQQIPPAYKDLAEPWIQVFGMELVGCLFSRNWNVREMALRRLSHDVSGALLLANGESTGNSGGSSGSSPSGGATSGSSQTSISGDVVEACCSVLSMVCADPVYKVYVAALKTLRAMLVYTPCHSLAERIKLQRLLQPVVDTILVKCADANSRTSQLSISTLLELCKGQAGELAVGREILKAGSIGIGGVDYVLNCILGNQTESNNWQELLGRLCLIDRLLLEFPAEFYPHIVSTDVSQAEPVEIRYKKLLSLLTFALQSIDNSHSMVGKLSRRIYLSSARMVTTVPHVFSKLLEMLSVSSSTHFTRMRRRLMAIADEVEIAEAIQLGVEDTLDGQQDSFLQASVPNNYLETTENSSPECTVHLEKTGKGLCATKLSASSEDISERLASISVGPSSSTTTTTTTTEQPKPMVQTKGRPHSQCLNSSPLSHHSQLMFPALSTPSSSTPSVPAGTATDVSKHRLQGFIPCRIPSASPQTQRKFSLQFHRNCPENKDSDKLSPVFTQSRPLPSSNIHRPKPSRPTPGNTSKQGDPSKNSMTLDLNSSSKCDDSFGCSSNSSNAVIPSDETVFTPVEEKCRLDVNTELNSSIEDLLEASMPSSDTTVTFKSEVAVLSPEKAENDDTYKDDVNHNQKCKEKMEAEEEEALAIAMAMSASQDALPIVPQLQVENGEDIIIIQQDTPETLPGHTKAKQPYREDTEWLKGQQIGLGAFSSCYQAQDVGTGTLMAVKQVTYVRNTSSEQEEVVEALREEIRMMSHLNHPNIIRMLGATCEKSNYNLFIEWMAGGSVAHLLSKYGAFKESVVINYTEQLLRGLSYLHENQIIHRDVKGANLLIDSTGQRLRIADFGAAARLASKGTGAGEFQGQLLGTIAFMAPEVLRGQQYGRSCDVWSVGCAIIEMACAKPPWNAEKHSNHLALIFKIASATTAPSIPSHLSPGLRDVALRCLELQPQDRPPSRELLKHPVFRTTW
T40 sequence (Q96RR4 whole entry): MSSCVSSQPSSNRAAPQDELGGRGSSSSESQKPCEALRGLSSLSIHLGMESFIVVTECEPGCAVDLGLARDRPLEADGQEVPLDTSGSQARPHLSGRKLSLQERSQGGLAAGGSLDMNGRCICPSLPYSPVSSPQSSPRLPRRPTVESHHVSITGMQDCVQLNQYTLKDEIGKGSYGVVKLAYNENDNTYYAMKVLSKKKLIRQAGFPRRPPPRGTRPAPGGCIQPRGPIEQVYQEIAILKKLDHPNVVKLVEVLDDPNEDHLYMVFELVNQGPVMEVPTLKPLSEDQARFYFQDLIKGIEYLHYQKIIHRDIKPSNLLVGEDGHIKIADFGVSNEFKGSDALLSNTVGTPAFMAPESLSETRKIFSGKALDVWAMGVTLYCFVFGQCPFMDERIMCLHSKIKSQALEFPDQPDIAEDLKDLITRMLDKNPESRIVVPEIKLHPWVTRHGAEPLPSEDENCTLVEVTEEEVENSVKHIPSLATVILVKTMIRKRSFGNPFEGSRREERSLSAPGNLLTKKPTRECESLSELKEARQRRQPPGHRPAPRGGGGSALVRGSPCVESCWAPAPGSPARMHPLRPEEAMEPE

With `CCN(C(=O)CO)[C@H]1CN(/C(=N\C#N)Nc2cccc(OC(F)F)c2)N=C1c1ccc(Cl)c(Cl)c1` [(S)-4] the remaining binding at 1 µM (PIP5K2B) was 100%, the remaining binding at 1 µM (EPHB3) was 99% and the remaining binding at 1 µM (RIPK5) was 90%. For the same compound, the remaining binding at 1 µM (ACVRL1) was 74%, the remaining binding at 1 µM (TYRO3) was 100% and the remaining binding at 1 µM (MLK2) was 77%. For the same compound, the remaining binding at 1 µM (EPHA7) was 91%, the remaining binding at 1 µM (HUNK) was 94% and the remaining binding at 1 µM (TNK1) was 66%. For the same compound, the remaining binding at 1 µM (MUSK) was 97%, the remaining binding at 1 µM (PYK2) was 100% and the remaining binding at 1 µM (DDR1) was 96%. It also gave a remaining binding at 1 µM (FGFR3) of 88%, a remaining binding at 1 µM (KIT-autoinhibited) of 90% and a remaining binding at 1 µM (PLK1) of 100%. It also gave a remaining binding at 1 µM (MYO3A) of 100%, a remaining binding at 1 µM (PRKD3) of 99% and a remaining binding at 1 µM (ASK1) of 88%. The remaining binding at 1 µM (ALK(L1196M)) was 92%, the remaining binding at 1 µM (MAP3K1) was 100% and the remaining binding at 1 µM (PIK3C2G) was 77%. For the same compound, the remaining binding at 1 µM [1] was 48%, the remaining binding at 1 µM (FLT3) was 92% and the remaining binding at 1 µM (ACVR1) was 96%. For the same compound, the remaining binding at 1 µM (IRAK3) was 93%, the remaining binding at 1 µM (ERBB4) was 93% and the remaining binding at 1 µM (MEK6) was 74%. For the same compound, the remaining binding at 1 µM (TGFBR1) was 100%, the “Ex vivo AHNAK methylation in tumors” value (SMYD2; 10 mg/kg po qd) was “no significant effect” and the “Ex vivo AHNAK methylation in tumors” value (SMYD2; 100 mg/kg po qd) was “most significant effects”. The “Ex vivo AHNAK methylation in tumors” value (SMYD2; doses starting from 30 mg/kg po qd) was “significantly reduced”, the remaining binding at 1 µM (PRKX) was 100% and the remaining binding at 1 µM (MLCK) was 100%. For the same compound, the remaining binding at 1 µM (MAP3K4) was 75%, the remaining binding at 1 µM (NEK3) was 95% and the remaining binding at 1 µM (INSRR) was 85%. It also gave a remaining binding at 1 µM (ABL2) of 88%, a remaining binding at 1 µM (HIPK1) of 51% and a remaining binding at 1 µM (ADCK4) of 81%. The remaining binding at 1 µM (RIPK2) was 75%, the remaining binding at 1 µM (MEK1) was 98% and the remaining binding at 1 µM (CDKL2) was 100%. It also gave a remaining binding at 1 µM (CAMKK2) of 84%, a remaining binding at 1 µM (EGFR(G719C)) of 86% and a remaining binding at 1 µM [2] of 88%.
